Data published in patent publication US4992450A, “Piperidine opioid antagonists” (Eli Lilly and Company, priority 1989, dated 1991).
Structures can show the parent of a compound that is named as a salt. Where two headings read alike, the source gives them in different places.

Columns and labels:
mu receptor [1] = molecular target: T1, mu receptor (Rattus norvegicus, UniProt P33535); test: Opioid receptor binding displacement assay, mu site (rat whole brain minus cerebellum, 3H ligand); parameters: species or system Male Sprague Dawley rats
T1 construct: rat whole brain minus cerebellum for mu and delta sites; from tissue; host or cells: rat whole brain minus cerebellum, frozen pellet fraction
Description: (§1) This assay was conducted by the following procedure.
(§2) Male Sprague Dawley rats for mu and delta site experiments and male Hartley guinea pigs for kappa site experiments were sacrificed via decapitation and the brains were removed. The brain tissue, rat whole brain minus cerebellum for mu and delta sites and guinea pig cortex for the kappa site, was homogenized in a Teflon and glass tissue homogenizer. A supernatant I, pellet IV, fraction was frozen in a nitrogen freezer at 1.33 g/ml concentration and stored for not longer than five weeks prior to use. Pellets were rehydrated with physiological buffer prior to use.
(§3) The reaction was initiated by the addition of the rehydrated tissue which has been preincubated at 37° C. for 20 minutes. The reaction mixture was incubated in a 37° C. water bath for 20 minutes. The reaction was terminated by rapid filtration, (Amicon vacuum manifolds), through Whatman GF/C glass filters that had been presoaked in Krebs-Hepes buffer pH 7.4. The filters were then washed 2× with 5 ml of ice cold Krebs-Hepes buffer pH 7.4. Washed filters were placed in scintillation vials and 10 ml PCS, (Amersham), was added and samples counted in a Searle D-300 beta counter. Means and standard error statistics were calculated for triplicate experimental determinations in certain cases. The procedure was slightly modified for the kappa site. The tissue was pretreated with 100 nM concentrations of mu and delta receptor site blockers. The incubation time for the reaction mixture was 45 minutes at 37° C.

kappa receptor [2] = molecular target: T2, kappa receptor (Cavia porcellus, UniProt P41144); test: Opioid receptor binding displacement assay, kappa site (guinea pig cortex, 3H ligand); parameters: species or system male Hartley guinea pigs
T2 construct: guinea pig cortex for the kappa site; from tissue; host or cells: guinea pig cortex, frozen pellet fraction
Description: as §1, §2, §3

mu receptor [3] = molecular target: T3, mu receptor (Mus musculus, UniProt P42866); test: Mouse writhing assay, antagonism of morphine analgesia (mu); format: in vivo, CF-1 male mice; conditions: sc, read-out: Mu AD50
T3 construct: Five CF-1 male mice (Charles River, Portage, Mich.); from tissue; host or cells: whole living CF-1 male mice (in vivo)

kappa receptor [4] = molecular target: T4, kappa receptor (Mus musculus, UniProt P33534); test: in vivo; parameters: species or system CF-1 male mice; conditions: sc, read-out: Kappa AD50
T4 construct: Five CF-1 male mice (Charles River, Portage, Mich.); from tissue; host or cells: whole living CF-1 male mice (in vivo)

kappa receptors = molecular target: T5, kappa receptors (Rattus norvegicus, UniProt P34975); test: Rat diuresis assay, antagonism of bremazocine-induced urination; format: in vivo, male Long-Evans hooded rats; conditions: sc, rats, s.c., urinary output reduced to 50% of effect of 0.08 mg/kg bremazocine alone
T5 construct: sixty male Long-Evans hooded rats; from tissue; host or cells: whole living male Long-Evans hooded rats (in vivo)
Description: As such, the compounds of the invention were also evaluated in a rat diuresis assay conducted according to the following procedure described by Leander et al. in Drug Development Research 4:421-427 (1984) in an effort to further establish the ability of the present compounds to block kappa receptors.
According to this procedure, sixty male Long-Evans hooded rats (Charles River Breeding Laboratories, Portage, Mich.) weighing between about 300 and 500 grams each were housed either individually or in pairs in a temperature-controlled (23° C.) colony room which was illuminated between 6:00 A.M. and 6:00 P.M. Rodent chow and tap water were continuously available except during the measurement of urine output. The animals were used repeatedly, but no more frequently than twice a week.
The animals were then injected with various doses of the test compounds. To measure urine output, the animals were removed from the home cages, weighed, injected and placed in metabolism cages for 5 hr. Excreted urine was funneled into graduated cylinders. Cumulative urine volumes were determined at designated time intervals, usually at 2 and 5 hr after injection.
The compounds which are salt forms were dissolved in distilled water. If necessary, the compounds were dissolved in distilled water with the aid of either a few drops of lactic acid or hydrochloric acid and gentle warming. All injections were s.c. in a volume of 1 ml/kg of body weight. During tests for antagonism, two injections were given, one on each side of the body.
In the Table, column 1 provides the Example Number of the compound tested; column 2, the amount of compound in mg/kg necessary to reduce the urinary output to 50% of the effect produced by 0.08 mg/kg of bremazocine alone two hours after injection of bremazocine and the test compound; and column 3, the amount of compound in mg/kg necessary to reduce the urinary output to 50% of the effect produced by 0.08 mg/kg of bremazocine alone five hours after injection of bremazocine and the test compound.

[5] = test system: meal fed obese Zucker rats; test: Food consumption assay in meal fed obese Zucker rats; format: in vivo; conditions: Rattus norvegicus, sc, 4 h, amount to decrease food consumption 20% during first four hours
From the text: The following assay was employed to evaluate the ability of the compounds of the invention to effect food and water consumption of meal fed obese Zucker rats.
According to this procedure, 3-4 month old obese Zucker rats were trained to eat food daily from 8:00 A.M. to 4:00 P.M. only, such that the body weight gain approximates that if the rats were fed ad libitum. These rats were allowed to consume water at all times. Four groups of rats with four rats in each group, two female and two male, were formed. One group served as control for the other three groups each day. Each of the other groups were given a subcutaneous dose of the compound to be evaluated. The test compound was formulated in physiological saline containing 10% dimethylsulfoxide by volume.
Animals remained drug free for 4 days before the next test. Food and water consumption of each rat were measured for the first four hours. A test on one compound was run for three consecutive days. The drug effect was expressed as the percent of the control for that test day.
In the Table, column 1 gives the Example Number of the compound evaluated; and column 2 provides the ED20 in mg/kg, wherein ED20 represents the amount of compound evaluated in mg/kg necessary to decrease food consumption 20% during the first four hours of the experiment.

[6] = rat brain minus cerebellum, pH 7.4, 37° C., 20 minutes, read-out: Ki Mu
[7] = guinea pig cortex, pH 7.4, 37° C., 45 minutes, mu and delta sites blocked (100 nM), read-out: Ki Kappa
[8] = 2 h, two hours after injection, read-out: AD50 Two Hours
[9] = 5 h, five hours after injection, read-out: AD50 Five Hours

T4 sequence (P33534 whole entry): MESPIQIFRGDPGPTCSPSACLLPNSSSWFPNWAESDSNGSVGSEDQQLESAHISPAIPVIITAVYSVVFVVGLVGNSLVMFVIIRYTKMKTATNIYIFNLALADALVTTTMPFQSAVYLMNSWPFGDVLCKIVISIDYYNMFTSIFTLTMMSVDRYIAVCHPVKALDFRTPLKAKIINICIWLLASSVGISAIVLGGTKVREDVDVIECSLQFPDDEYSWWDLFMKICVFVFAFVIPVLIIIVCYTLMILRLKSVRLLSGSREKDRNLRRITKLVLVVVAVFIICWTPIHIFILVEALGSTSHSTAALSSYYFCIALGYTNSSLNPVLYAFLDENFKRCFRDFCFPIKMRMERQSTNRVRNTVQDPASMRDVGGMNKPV
T5 sequence (P34975 whole entry): as the sequence (P33534 whole entry) above, with D11E, S17A, S51P, A308V counted along it
T2 sequence (P41144 whole entry): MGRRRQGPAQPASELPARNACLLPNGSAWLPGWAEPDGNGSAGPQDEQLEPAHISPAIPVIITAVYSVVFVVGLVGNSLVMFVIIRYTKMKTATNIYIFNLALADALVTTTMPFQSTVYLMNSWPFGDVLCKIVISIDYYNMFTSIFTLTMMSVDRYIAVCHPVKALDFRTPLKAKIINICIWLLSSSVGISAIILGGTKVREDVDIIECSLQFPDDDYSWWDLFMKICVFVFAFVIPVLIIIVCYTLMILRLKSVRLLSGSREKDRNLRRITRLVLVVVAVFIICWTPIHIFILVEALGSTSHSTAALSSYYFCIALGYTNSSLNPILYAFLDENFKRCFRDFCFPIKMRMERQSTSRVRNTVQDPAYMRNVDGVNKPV
T3 sequence (P42866 whole entry): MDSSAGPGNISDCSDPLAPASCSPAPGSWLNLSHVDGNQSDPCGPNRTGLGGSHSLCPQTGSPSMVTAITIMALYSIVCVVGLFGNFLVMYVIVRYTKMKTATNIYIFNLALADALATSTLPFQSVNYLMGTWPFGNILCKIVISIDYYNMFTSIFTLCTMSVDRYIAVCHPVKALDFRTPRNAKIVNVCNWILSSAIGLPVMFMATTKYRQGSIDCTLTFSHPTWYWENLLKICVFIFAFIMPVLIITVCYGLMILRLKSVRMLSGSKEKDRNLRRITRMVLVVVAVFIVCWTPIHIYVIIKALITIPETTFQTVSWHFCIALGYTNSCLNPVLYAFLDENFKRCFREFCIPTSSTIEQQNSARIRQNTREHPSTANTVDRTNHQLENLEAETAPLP
T1 sequence (P33535 whole entry): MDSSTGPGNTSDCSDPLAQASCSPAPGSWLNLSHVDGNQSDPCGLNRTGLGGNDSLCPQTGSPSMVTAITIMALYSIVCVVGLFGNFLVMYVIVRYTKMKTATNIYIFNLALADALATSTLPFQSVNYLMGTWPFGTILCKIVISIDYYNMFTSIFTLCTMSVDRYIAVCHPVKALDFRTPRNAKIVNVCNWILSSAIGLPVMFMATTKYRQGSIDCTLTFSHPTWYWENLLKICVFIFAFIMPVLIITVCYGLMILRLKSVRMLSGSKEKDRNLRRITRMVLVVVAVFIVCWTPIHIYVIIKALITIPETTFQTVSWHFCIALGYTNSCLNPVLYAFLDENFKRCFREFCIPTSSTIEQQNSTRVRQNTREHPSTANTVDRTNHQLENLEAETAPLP

Compound | Ki (mu receptor [1]; [6]) [nM] | Ki (kappa receptor [2]; [7]) [nM] | ED50 (mu receptor [3]) [mg/kg] | ED50 (kappa receptor [4]) [mg/kg] | ED50 (kappa receptors; [8]) [mg/kg] | ED50 (kappa receptors; [9]) [mg/kg] | ED20 [5] [mg/kg] | Ki (kappa receptor [2]) [nM] | Ki (mu receptor [1]) [nM] | Ki (kappa receptor [2]; read-out: Ki Kappa, guinea pig cortex, pH 7.4, 37° C., 45 minutes, mu and delta sites blocked (100 nM)) [nM]
C[C@H]1CN(CCC(O)c2ccccc2)CC[C@@]1(C)c1cccc(O)c1 (relative stereo) [Compound A, 4β-(3-Hydroxyphenyl)-3β,4α-dimethyl-α-phenyl-1-piperidinepropanol hydrochloride, reference compound] | 1 | 22.7 | 0.05 | 0.92 | 4.09 | 2.65 | 0.55 | – | – | –
C[C@H]1CN(C)CC[C@@]1(C)c1cccc(O)c1 (relative stereo) [Compound B, 3-(1,3α,4β-Trimethyl-4α-piperidyl)phenol hydrochloride, reference compound] | 80 | – | 0.74 | 2.5 | – | – | 3.99 | – | – | –
C[C@H]1CN(CCc2ccccc2)CC[C@@]1(C)c1cccc(O)c1 (relative stereo) [Compound D, 3-(3α,4β-Dimethyl-1-phenethyl-4α-piperidyl)phenol hydrochloride, reference compound] | 1.2 | 51 | 0.16 | 1.38 | – | – | 0.94 | – | – | –
C[C@H]1CN(CCC2C=CCC2)CC[C@@]1(C)c1cccc(O)c1 (relative stereo) [Example 7, trans-(±)-1-[2-(2-Cyclopenten-1-yl)ethyl]-3,4-dimethyl-4-(3-hydroxyphenyl)piperidine hydrochloride] | – | – | 0.11 | 0.12 | 1.3 | 1.38 | 0.34 | 1.04 | – | –
C[C@H]1CN(CCC(=O)C2CCCC2)CC[C@@]1(C)c1cccc(O)c1 (relative stereo) [Example 17, trans-(±)-1-(1-Cyclopentylpropanon-3-yl)-3,4-dimethyl-4-(3-hydroxyphenyl)piperidine hydrochloride] | – | – | 0.21 | 0.19 | – | – | 0.31 | 0.55 | 0.84 | –
C[C@H]1CN(CCC(O)C2CCCCC2)CC[C@@]1(C)c1cccc(O)c1 (relative stereo) [Example 27, trans-(±)-1-[R,S-(3-Hydroxy-3-cyclohexylpropyl)]-3,4-dimethyl-4-(3-hydroxyphenyl)piperidine hydrochloride] | 0.22 ± 0.03 | 5.04 ± 0.58 | 0.07 | 0.14 | – | – | 0.04 | – | – | –
COC(CCN1CC[C@@](C)(c2cccc(O)c2)[C@@H](C)C1)C1CCCCC1 (relative stereo) [Example 31, trans-(±)-1-[R,S-(3-Methoxy-3-cyclohexylpropyl)]-3,4-dimethyl-4-(3-hydroxyphenyl)piperidine hydrochloride] | 0.77 | 3.82 | 1.42 | 0.44 | – | – | – | – | – | –
C[C@H]1CN(CCC(O)c2cccs2)CC[C@@]1(C)c1cccc(O)c1 (relative stereo) [Example 40, trans-(±)-1-[R,S-[3-Hydroxy-3-(2-thienyl)-propyl]-3,4-dimethyl-4-(3-hydroxyphenyl)piperidine hydrochloride] | 0.5 | – | 0.065 | 0.14 | 3.78 | 1.44 | 0.11 | – | – | –
CC(C)CCCCN1CCC(C)(c2cccc(O)c2)C(C)C1 (stereo not drawn) [Example 4, trans-(±)-1-(5-Methylhexyl)-3,4-dimethyl-4-(3-hydroxyphenyl)piperidine hydrochloride] | – | – | 0.35 | 0.23 | 0.17 | 0.46 | 0.05 | – | – | 6.04 ± 0.44
CC1CN(CCC2CCCC2)CCC1(C)c1cccc(O)c1 (stereo not drawn) [Example 6, trans-(±)-1-(2-Cyclopentylethyl)-3,4-dimethyl-4-(3-hydroxyphenyl)piperidine hydrochloride] | – | – | 0.13 | 0.22 | – | 0.67 | 0.33 | – | 0.94 | –
CC1CN(CC2CCCCC2)CCC1(C)c1cccc(O)c1 (stereo not drawn) [Example 10, trans-(±)-1-(Cyclohexylmethyl)-3,4-dimethyl-4-(3-hydroxyphenyl)piperidine hydrochloride] | – | – | 0.46 | 0.34 | 14.9 | 3.9 | 1.25 | 28.2 | – | –
CC1CN(CCCC2CCCCC2)CCC1(C)c1cccc(O)c1 (stereo not drawn) [Example 11, trans-(±)-1-(3-Cyclohexylpropyl)-3,4-dimethyl-4-(3-hydroxyphenyl)piperidine hydrochloride] | – | – | 0.19 | 0.35 | 1.9 | 1.02 | 0.15 | 2.34 | – | –
CC(C)CCN1CCC(C)(c2cccc(O)c2)C(C)C1 (stereo not drawn) [Example 16, trans-(±)-1-(3-Methylbutyl)-3,4-dimethyl-4-(3-hydroxyphenyl)piperidine hydrochloride] | – | – | 0.87 | 0.62 | 7.7 | 4.45 | > 20 | 70.1 | – | –
C=CCCCCN1CCC(C)(c2cccc(O)c2)C(C)C1 (stereo not drawn) [Example 21, trans-(±)-1-(5-n-Hexenyl)-3,4-dimethyl-4-(3-hydroxyphenyl)piperidine hydrochloride] | – | – | – | – | – | – | 9.37 | – | 1.61 | –
C[C@@H]1CN(CC[C@H](O)C2CCCCC2)CC[C@]1(C)c1cccc(O)c1 [Example 24, trans-(-)-1-[S-(3-Hydroxy-3-cyclohexylpropyl)]-3,4-dimethyl-4-(3-hydroxyphenyl)piperidine] | 1.4 ± 0.61 | 11.4 ± 4.29 | 0.05 | 0.24 | – | – | 0.12 | – | – | –
C[C@@H]1CN(CC[C@@H](O)C2CCCCC2)CC[C@]1(C)c1cccc(O)c1 [Example 26, trans-(-)-1-[R-(3-Hydroxy-3-cyclohexylpropyl)]-3,4-dimethyl-4-(3-hydroxyphenyl)piperidine] | – | – | 0.07 | 0.52 | – | – | 0.35 | – | 2.24 ± 0.17 | –
CC1CN(CCCc2ccsc2)CCC1(C)c1cccc(O)c1 (stereo not drawn) [Example 41, trans-(±)-1-[3-(3-Thienyl)propyl]-3,4-dimethyl-4-(3-hydroxyphenyl)piperidine hydrochloride] | – | – | 0.12 | 0.24 | 2.7 | 1.9 | – | 10.3 | – | –
